Counter-ions that a name gives are not always drawn. ± gives the standard error.
These compounds were tested on 621-103 (TSC2-rescued) (assay: relative viability vs DMSO; higher = less cytotoxic). Settings: 0.1 µM; serum: 10% FBS; 72 h.
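Note: immortalized renal angiomyolipoma cells stably carrying empty vector or TSC2, dosed in 384-well plates in DMEM, viability normalized to vehicle-treated wells within each plate.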

SMILES | relative viability [%]
CCN1CCN(C(=O)Cc2ccc(Nc3ncc(F)c(Nc4ccc(C(=O)Nc5ccccc5Cl)cc4)n3)cc2)CC1 [Aurora A Inhibitor I] | 99.54 ± 0.75
CC(C)c1cc(C(C)C)c(CC(=O)NS(=O)(=O)Oc2c(C(C)C)cccc2C(C)C)c(C(C)C)c1 [Avasimibe (CI-1011)] | 101 ± 0.45
CNC(=O)c1ccccc1Sc1ccc2c(/C=C/c3ccccn3)n[nH]c2c1 [Axitinib] | 102 ± 1.1
CN1CCCC(n2nc(Cc3ccc(Cl)cc3)c3ccccc3c2=O)CC1 (centres undefined) [Azelastine HCl (Astelin)] | 100 ± 6.5
CNC(=O)c1cc(Oc2ccc(NC(=O)Nc3ccc(Cl)c(C(F)(F)F)c3)c(F)c2)ccn1 [BAY 73-4506 (Regorafenib)] | 102 ± 1.6
CC[C@@H]1C(=O)N(C)c2cnc(Nc3ccc(C(=O)N[C@H]4CC[C@H](N5CCN(CC6CC6)CC5)CC4)cc3OC)nc2N1C(C)C [BI6727 (Volasertib)] | 49 ± 2
CC[C@@H]1C(=O)N(C)c2cnc(Nc3ccc(C(=O)NC4CCN(C)CC4)cc3OC)nc2N1C1CCCC1 [BI 2536] | 43.5 ± 1.5
COC(=O)c1ccc2c(C(=Nc3ccc(N(C)C(=O)CN4CCN(C)CC4)cc3)c3ccccc3)c(O)[nH]c2c1 [BIBF1120 (Vargatef)] | 98.9 ± 3.9
C/C(=C\C(=O)Nc1ccccc1C(=O)O)c1ccc2ccccc2c1 [BIBR1532] | 103 ± 1.3
Cn1c(CNc2ccc(C(=N)N)cc2)nc2cc(C(=O)N(CCC(=O)O)c3ccccn3)ccc21 [BIBR 953] | 94.1 ± 7.3
CCCCCCOC(=O)NC(=N)c1ccc(NCc2nc3cc(C(=O)N(CCC(=O)OCC)c4ccccn4)ccc3n2C)cc1 [BIBR-1048] | 92.9 ± 8.5
CN(C)C/C=C/C(=O)Nc1cc2c(Nc3ccc(F)c(Cl)c3)ncnc2cc1O[C@H]1CCOC1 [BIBW2992 )Tovok)] | 100.3 ± 0.78
COc1c(C)cnc(Cn2cnc3c(Cl)nc(N)nc32)c1C [BIIB021] | 75 ± 2.9
Cc1ccc(-n2nc(C(C)(C)C)cc2NC(=O)Nc2ccc(OCCN3CCOCC3)c3ccccc23)cc1 [BIRB 796] | 98.7 ± 1.7
Nc1cc(C(F)(F)F)c(-c2cc(N3CCOCC3)nc(N3CCOCC3)n2)cn1 [BKM120 (NVP-BKM120)] | 104 ± 5
COc1ccccc1N1CCN(CCN2C(=O)CC3(CCCC3)CC2=O)CC1 [BMY 7378] | 98.2 ± 1.8
CC(C)c1cnn2c(NCc3ccccc3)cc(NCCCCCCN)nc12 [BS-181] | 88.3 ± 1.2
NC(=O)c1ccc(I)c([N+](=O)[O-])c1 [BSI-201] | 102 ± 1.9
O=C(O)[C@H]1O[C@@H](Oc2cc3oc(-c4ccccc4)cc(=O)c3c(O)c2O)[C@H](O)[C@@H](O)[C@@H]1O [Baicalin] | 106 ± 4.6
CCOC(=O)[C@H](CCc1ccccc1)N[C@H]1CCc2ccccc2N(CC(=O)O)C1=O [Benazepril HCl] | 98.8 ± 6.3
NC(CO)C(=O)NNCc1ccc(O)c(O)c1O (centres undefined) [Benserazide HCl] | 109.5 ± 0.88
CC(C[N+](C)(C)C)OC(N)=O (centres undefined) [Bethanechol chloride] | 105 ± 0.93
CC(O)(CS(=O)(=O)c1ccc(F)cc1)C(=O)Nc1ccc(C#N)c(C(F)(F)F)c1 (centres undefined) [Bicalutamide (Casodex)] | 102 ± 1.6
COc1cc(Nc2c(C#N)cnc3cc(OCCCN4CCN(C)CC4)c(OC)cc23)c(Cl)cc1Cl [Bosutinib (SKI-606)] | 90.2 ± 6.4
CCCCN1CCCCC1C(=O)Nc1c(C)cccc1C (centres undefined) [Bupivacaine HCl (marcain)] | 104 ± 4.7
CC[C@H](Nc1ncnc2[nH]cnc12)c1nc2cccc(F)c2c(=O)n1-c1ccccc1 [CAL-101] | 104 ± 3.4
O=C(O)c1ccc2c(c1)nc(Nc1cccc(Cl)c1)c1ccncc12 [CX-4945] | 106 ± 3
Cc1nc(N)sc1-c1ccnc(Nc2ccc(N3CCOCC3)cc2)n1 [CYC116] | 95.1 ± 4.3

Same assay, conditions: 1 µM; serum: 10% FBS; 72 h

SMILES | relative viability [%]
CCN1CCN(C(=O)Cc2ccc(Nc3ncc(F)c(Nc4ccc(C(=O)Nc5ccccc5Cl)cc4)n3)cc2)CC1 [Aurora A Inhibitor I] | 87.1 ± 2.3
CC(C)c1cc(C(C)C)c(CC(=O)NS(=O)(=O)Oc2c(C(C)C)cccc2C(C)C)c(C(C)C)c1 [Avasimibe (CI-1011)] | 97.89 ± 0.25
CNC(=O)c1ccccc1Sc1ccc2c(/C=C/c3ccccn3)n[nH]c2c1 [Axitinib] | 98.7 ± 1.9
CN1CCCC(n2nc(Cc3ccc(Cl)cc3)c3ccccc3c2=O)CC1 (centres undefined) [Azelastine HCl (Astelin)] | 102 ± 2.2
CNC(=O)c1cc(Oc2ccc(NC(=O)Nc3ccc(Cl)c(C(F)(F)F)c3)c(F)c2)ccn1 [BAY 73-4506 (Regorafenib)] | 100 ± 1.8
CC[C@@H]1C(=O)N(C)c2cnc(Nc3ccc(C(=O)N[C@H]4CC[C@H](N5CCN(CC6CC6)CC5)CC4)cc3OC)nc2N1C(C)C [BI6727 (Volasertib)] | 44.3 ± 1.4
CC[C@@H]1C(=O)N(C)c2cnc(Nc3ccc(C(=O)NC4CCN(C)CC4)cc3OC)nc2N1C1CCCC1 [BI 2536] | 50.6 ± 0.58
COC(=O)c1ccc2c(C(=Nc3ccc(N(C)C(=O)CN4CCN(C)CC4)cc3)c3ccccc3)c(O)[nH]c2c1 [BIBF1120 (Vargatef)] | 96.9 ± 2.5
C/C(=C\C(=O)Nc1ccccc1C(=O)O)c1ccc2ccccc2c1 [BIBR1532] | 99.8 ± 0.11
Cn1c(CNc2ccc(C(=N)N)cc2)nc2cc(C(=O)N(CCC(=O)O)c3ccccn3)ccc21 [BIBR 953] | 88.3 ± 6.7
CCCCCCOC(=O)NC(=N)c1ccc(NCc2nc3cc(C(=O)N(CCC(=O)OCC)c4ccccn4)ccc3n2C)cc1 [BIBR-1048] | 72.9 ± 5.4
CN(C)C/C=C/C(=O)Nc1cc2c(Nc3ccc(F)c(Cl)c3)ncnc2cc1O[C@H]1CCOC1 [BIBW2992 )Tovok)] | 78.3 ± 2.9
COc1c(C)cnc(Cn2cnc3c(Cl)nc(N)nc32)c1C [BIIB021] | 5.92 ± 0.87
Cc1ccc(-n2nc(C(C)(C)C)cc2NC(=O)Nc2ccc(OCCN3CCOCC3)c3ccccc23)cc1 [BIRB 796] | 94.18 ± 0.14
Nc1cc(C(F)(F)F)c(-c2cc(N3CCOCC3)nc(N3CCOCC3)n2)cn1 [BKM120 (NVP-BKM120)] | 58.5 ± 2.1
COc1ccccc1N1CCN(CCN2C(=O)CC3(CCCC3)CC2=O)CC1 [BMY 7378] | 105 ± 1.9
CC(C)c1cnn2c(NCc3ccccc3)cc(NCCCCCCN)nc12 [BS-181] | 100 ± 1.4
NC(=O)c1ccc(I)c([N+](=O)[O-])c1 [BSI-201] | 100.5 ± 0.3
O=C(O)[C@H]1O[C@@H](Oc2cc3oc(-c4ccccc4)cc(=O)c3c(O)c2O)[C@H](O)[C@@H](O)[C@@H]1O [Baicalin] | 105 ± 1.2
CCOC(=O)[C@H](CCc1ccccc1)N[C@H]1CCc2ccccc2N(CC(=O)O)C1=O [Benazepril HCl] | 95.2 ± 4.9
NC(CO)C(=O)NNCc1ccc(O)c(O)c1O (centres undefined) [Benserazide HCl] | 114 ± 2.6
CC(C[N+](C)(C)C)OC(N)=O (centres undefined) [Bethanechol chloride] | 103.7 ± 0.9
CC(O)(CS(=O)(=O)c1ccc(F)cc1)C(=O)Nc1ccc(C#N)c(C(F)(F)F)c1 (centres undefined) [Bicalutamide (Casodex)] | 102.5 ± 0.88
COc1cc(Nc2c(C#N)cnc3cc(OCCCN4CCN(C)CC4)c(OC)cc23)c(Cl)cc1Cl [Bosutinib (SKI-606)] | 69.5 ± 4
CCCCN1CCCCC1C(=O)Nc1c(C)cccc1C (centres undefined) [Bupivacaine HCl (marcain)] | 94.37 ± 0.47
CC[C@H](Nc1ncnc2[nH]cnc12)c1nc2cccc(F)c2c(=O)n1-c1ccccc1 [CAL-101] | 109 ± 2
O=C(O)c1ccc2c(c1)nc(Nc1cccc(Cl)c1)c1ccncc12 [CX-4945] | 104 ± 3.2
Cc1nc(N)sc1-c1ccnc(Nc2ccc(N3CCOCC3)cc2)n1 [CYC116] | 72 ± 3.4

Same assay, conditions: 10 µM; serum: 10% FBS; 72 h

SMILES | relative viability [%]
CCN1CCN(C(=O)Cc2ccc(Nc3ncc(F)c(Nc4ccc(C(=O)Nc5ccccc5Cl)cc4)n3)cc2)CC1 [Aurora A Inhibitor I] | 0.915 ± 0.027
CC(C)c1cc(C(C)C)c(CC(=O)NS(=O)(=O)Oc2c(C(C)C)cccc2C(C)C)c(C(C)C)c1 [Avasimibe (CI-1011)] | 97.8 ± 3.3
CNC(=O)c1ccccc1Sc1ccc2c(/C=C/c3ccccn3)n[nH]c2c1 [Axitinib] | 40.7 ± 1.5
CN1CCCC(n2nc(Cc3ccc(Cl)cc3)c3ccccc3c2=O)CC1 (centres undefined) [Azelastine HCl (Astelin)] | 68.28 ± 0.32
CNC(=O)c1cc(Oc2ccc(NC(=O)Nc3ccc(Cl)c(C(F)(F)F)c3)c(F)c2)ccn1 [BAY 73-4506 (Regorafenib)] | 63.55 ± 0.47
CC[C@@H]1C(=O)N(C)c2cnc(Nc3ccc(C(=O)N[C@H]4CC[C@H](N5CCN(CC6CC6)CC5)CC4)cc3OC)nc2N1C(C)C [BI6727 (Volasertib)] | 5.99 ± 0.27
CC[C@@H]1C(=O)N(C)c2cnc(Nc3ccc(C(=O)NC4CCN(C)CC4)cc3OC)nc2N1C1CCCC1 [BI 2536] | 13 ± 0.48
COC(=O)c1ccc2c(C(=Nc3ccc(N(C)C(=O)CN4CCN(C)CC4)cc3)c3ccccc3)c(O)[nH]c2c1 [BIBF1120 (Vargatef)] | 82 ± 2.1
C/C(=C\C(=O)Nc1ccccc1C(=O)O)c1ccc2ccccc2c1 [BIBR1532] | 96.4 ± 1.2
Cn1c(CNc2ccc(C(=N)N)cc2)nc2cc(C(=O)N(CCC(=O)O)c3ccccn3)ccc21 [BIBR 953] | 91.3 ± 4.6
CCCCCCOC(=O)NC(=N)c1ccc(NCc2nc3cc(C(=O)N(CCC(=O)OCC)c4ccccn4)ccc3n2C)cc1 [BIBR-1048] | 69.4 ± 1.5
CN(C)C/C=C/C(=O)Nc1cc2c(Nc3ccc(F)c(Cl)c3)ncnc2cc1O[C@H]1CCOC1 [BIBW2992 )Tovok)] | 7.915 ± 0.042
COc1c(C)cnc(Cn2cnc3c(Cl)nc(N)nc32)c1C [BIIB021] | 4.56 ± 0.052
Cc1ccc(-n2nc(C(C)(C)C)cc2NC(=O)Nc2ccc(OCCN3CCOCC3)c3ccccc23)cc1 [BIRB 796] | 95.5 ± 1.8
Nc1cc(C(F)(F)F)c(-c2cc(N3CCOCC3)nc(N3CCOCC3)n2)cn1 [BKM120 (NVP-BKM120)] | 21 ± 0.97
COc1ccccc1N1CCN(CCN2C(=O)CC3(CCCC3)CC2=O)CC1 [BMY 7378] | 105 ± 1.3
CC(C)c1cnn2c(NCc3ccccc3)cc(NCCCCCCN)nc12 [BS-181] | 55.7 ± 5.2
NC(=O)c1ccc(I)c([N+](=O)[O-])c1 [BSI-201] | 102.3 ± 0.13
O=C(O)[C@H]1O[C@@H](Oc2cc3oc(-c4ccccc4)cc(=O)c3c(O)c2O)[C@H](O)[C@@H](O)[C@@H]1O [Baicalin] | 107.9 ± 0.63
CCOC(=O)[C@H](CCc1ccccc1)N[C@H]1CCc2ccccc2N(CC(=O)O)C1=O [Benazepril HCl] | 89.9 ± 6.7
NC(CO)C(=O)NNCc1ccc(O)c(O)c1O (centres undefined) [Benserazide HCl] | 105 ± 3.1
CC(C[N+](C)(C)C)OC(N)=O (centres undefined) [Bethanechol chloride] | 101.6 ± 0.12
CC(O)(CS(=O)(=O)c1ccc(F)cc1)C(=O)Nc1ccc(C#N)c(C(F)(F)F)c1 (centres undefined) [Bicalutamide (Casodex)] | 102 ± 1.1
COc1cc(Nc2c(C#N)cnc3cc(OCCCN4CCN(C)CC4)c(OC)cc23)c(Cl)cc1Cl [Bosutinib (SKI-606)] | 1.86 ± 0.19
CCCCN1CCCCC1C(=O)Nc1c(C)cccc1C (centres undefined) [Bupivacaine HCl (marcain)] | 98.415 ± 0.003
CC[C@H](Nc1ncnc2[nH]cnc12)c1nc2cccc(F)c2c(=O)n1-c1ccccc1 [CAL-101] | 92.7 ± 4.7
O=C(O)c1ccc2c(c1)nc(Nc1cccc(Cl)c1)c1ccncc12 [CX-4945] | 72.54 ± 0.24
Cc1nc(N)sc1-c1ccnc(Nc2ccc(N3CCOCC3)cc2)n1 [CYC116] | 28.3 ± 0.44
